The target of the assay is T1, EGFR-WT (Homo sapiens, UniProt P00533).
T1 construct: purchased Invitrogen PV3872
The assay can be described thus: Omnia assay for potency assessment against EGFR-WT. The format is biochemical. The note with it: 30 min pre-incubation at 27° C., read-out: EGFR Inhibition. Here is the method:
Omnia Assay Protocol for Potency Assessment Against BTK and EGFR
The mechanics of the assay platform are best described by the vendor (Invitrogen, Carlsbad, Calif.).
10× stocks of EGFR-WT (PV3872) from Invitrogen, 1.13×ATP (Invitrogen catalog number AS001A) and appropriate Tyr-Sox conjugated peptide substrates (Invitrogen catalog number KCZ1001) were prepared in 1× kinase reaction buffer consisting of 20 mM Tris, pH 7.5, 5 mM MgCl2, 1 mM EGTA, 5 mM β-glycerophosphate, 5% glycerol (10× stock, Invitrogen catalog number KB002A) and 0.2 mM DTT (Invitrogen catalog number DS001A). 5 μL of each enzyme were pre-incubated in a Corning (#3574) 384-well, white, non-binding surface microtiter plate (Corning, N.Y.) for 30 min. at 27° C. with a 0.5 μL volume of 50% DMSO and serially diluted compounds prepared in 50% DMSO. Kinase reactions were started with the addition of 45 μL of the ATP/Tyr-Sox peptide substrate mix and monitored every 30-90 seconds for 60 minutes at λex360/λem485 in a Synergy^4 plate reader from BioTek (Winooski, Vt.). […] Initial velocity (0 minutes to ˜30 minutes) from each reaction was determined from the slope of a plot of relative fluorescence units vs time (minutes) and then plotted against inhibitor concentration to estimate IC50 from log[Inhibitor] vs Response, Variable Slope model in GraphPad Prism from GraphPad Software (San Diego, Calif.).

T1 sequence (P00533 668-1210 limits assumed): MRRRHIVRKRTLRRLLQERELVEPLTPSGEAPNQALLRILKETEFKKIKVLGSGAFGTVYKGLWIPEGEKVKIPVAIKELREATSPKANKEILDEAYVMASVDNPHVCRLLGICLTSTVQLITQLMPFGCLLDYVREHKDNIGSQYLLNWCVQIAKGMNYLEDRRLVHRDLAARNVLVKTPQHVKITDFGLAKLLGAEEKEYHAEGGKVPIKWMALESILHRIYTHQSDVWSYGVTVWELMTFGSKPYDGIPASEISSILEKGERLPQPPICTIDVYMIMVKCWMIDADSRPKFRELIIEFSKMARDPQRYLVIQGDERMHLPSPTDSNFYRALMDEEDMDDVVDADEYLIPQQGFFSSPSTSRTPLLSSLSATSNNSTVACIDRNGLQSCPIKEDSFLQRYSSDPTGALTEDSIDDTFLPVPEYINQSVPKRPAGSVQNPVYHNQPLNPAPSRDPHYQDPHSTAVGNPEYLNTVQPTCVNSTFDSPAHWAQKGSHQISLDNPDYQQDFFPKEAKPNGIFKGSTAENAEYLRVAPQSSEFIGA

With `[2H]C([2H])([2H])OC([2H])([2H])C([2H])([2H])Oc1ccc(Nc2ncc(F)c(Nc3cccc(NC(=O)C=C)c3)n2)cc1` [II-7], the IC50 fell in the range of 10 to 100 nM.
